Source: patent US20240123079A1 (Seagen Inc., priority 2021, published 2024)

Assay: In vivo cytokine assay, plasma of Renca tumor-bearing mice
Design: species or system mouse; IFNg production in plasma / IL-1b production in plasma / IL-6 production in plasma / IL12p70 production in plasma / IP10 production in plasma / MIP1a production in plasma / MIP1b production in plasma / TNFa production in plasma: unit not given here
Method: Cytokines were measured in mouse plasma harvested at 3, 6, 24, or 48 hours after treatment with compounds or ADCs using a Milliplex MAP mouse cytokine/chemokine magnetic bead panel assay kit (MCYTOMAG-70k custom 11-plex kit: MCP1, MIP1α, MIP1β, TNFα, IFNγ, IL-10, IL-12p70, IL-6, IL-1β, IP10, RANTES) and analyzed using a Luminex™ MAGPIX™ Instrument System. Values that were outside of the standard curve range (<3.2 or […]) were excluded from calculation of the mean values.

For `CCn1nc(C)cc1C(=O)Nc1nc2cc(C(N)=O)cc(OC)c2n1C/C=C/Cn1c(NC(=O)c2cc(C)nn2CC)nc2cc(C(N)=O)cc(OCCCNC)c21` [Compound 12a], the “IFNg production in plasma” value (0.2 mg/kg, dose #1, 3 h) was less than 3.2, the “IL12p70 production in plasma” value (0.2 mg/kg, dose #1, 3 h) was less than 3.2 and the “IL-1b production in plasma” value (0.2 mg/kg, dose #1, 3 h) was 0.7. The “IL-6 production in plasma” value (0.2 mg/kg, dose #1, 3 h) was 780.0, the “IL-10 production in plasma” value (0.2 mg/kg, dose #1, 3 h) was 15.6 and the “IP10 production in plasma” value (0.2 mg/kg, dose #1, 3 h) was 1989.6. For the same compound, the “MCP-1 production in plasma” value (0.2 mg/kg, dose #1, 3 h) was 333.3, the “MIP1a production in plasma” value (0.2 mg/kg, dose #1, 3 h) was 10.3 and the “MIP1b production in plasma” value (0.2 mg/kg, dose #1, 3 h) was 727.2. For the same compound, the “RANTES production in plasma” value (0.2 mg/kg, dose #1, 3 h) was less than 3.2, the “TNFa production in plasma” value (0.2 mg/kg, dose #1, 3 h) was 9.1 and the “IFNg production in plasma” value (0.2 mg/kg, dose #1, 6 h) was 4.6. For the same compound, the “IL12p70 production in plasma” value (0.2 mg/kg, dose #1, 6 h) was less than 3.2, the “IL-1b production in plasma” value (0.2 mg/kg, dose #1, 6 h) was 0.7 and the “IL-6 production in plasma” value (0.2 mg/kg, dose #1, 6 h) was 266.1. For the same compound, the “IL-10 production in plasma” value (0.2 mg/kg, dose #1, 6 h) was less than 3.2, the “IP10 production in plasma” value (0.2 mg/kg, dose #1, 6 h) was 8985.4 and the “MCP-1 production in plasma” value (0.2 mg/kg, dose #1, 6 h) was 7790.8. For the same compound, the “MIP1a production in plasma” value (0.2 mg/kg, dose #1, 6 h) was 101.9, the “MIP1b production in plasma” value (0.2 mg/kg, dose #1, 6 h) was 670.7 and the “RANTES production in plasma” value (0.2 mg/kg, dose #1, 6 h) was 130.3. For the same compound, the “TNFa production in plasma” value (0.2 mg/kg, dose #1, 6 h) was 8.1, the “IFNg production in plasma” value (0.2 mg/kg, dose #1, 24 h) was less than 3.2 and the “IL12p70 production in plasma” value (0.2 mg/kg, dose #1, 24 h) was less than 3.2. The “IL-1b production in plasma” value (0.2 mg/kg, dose #1, 24 h) was 3.2, the “IL-6 production in plasma” value (0.2 mg/kg, dose #1, 24 h) was 4.1 and the “IL-10 production in plasma” value (0.2 mg/kg, dose #1, 24 h) was less than 3.2. For the same compound, the “IP10 production in plasma” value (0.2 mg/kg, dose #1, 24 h) was 257.9, the “MCP-1 production in plasma” value (0.2 mg/kg, dose #1, 24 h) was 53.0 and the “MIP1a production in plasma” value (0.2 mg/kg, dose #1, 24 h) was less than 3.2. For the same compound, the “MIP1b production in plasma” value (0.2 mg/kg, dose #1, 24 h) was less than 3.2, the “RANTES production in plasma” value (0.2 mg/kg, dose #1, 24 h) was 3.2 and the “TNFa production in plasma” value (0.2 mg/kg, dose #1, 24 h) was 3.2. The “IFNg production in plasma” value (0.2 mg/kg, dose #1, 48 h) was less than 3.2, the “IL12p70 production in plasma” value (0.2 mg/kg, dose #1, 48 h) was less than 3.2 and the “IL-1b production in plasma” value (0.2 mg/kg, dose #1, 48 h) was 0.7. The “IL-6 production in plasma” value (0.2 mg/kg, dose #1, 48 h) was 5.6, the “IL-10 production in plasma” value (0.2 mg/kg, dose #1, 48 h) was less than 3.2 and the “IP10 production in plasma” value (0.2 mg/kg, dose #1, 48 h) was 172.8. The “MCP-1 production in plasma” value (0.2 mg/kg, dose #1, 48 h) was 56.8, the “MIP1a production in plasma” value (0.2 mg/kg, dose #1, 48 h) was 10.3 and the “MIP1b production in plasma” value (0.2 mg/kg, dose #1, 48 h) was less than 3.2. For the same compound, the “RANTES production in plasma” value (0.2 mg/kg, dose #1, 48 h) was less than 3.2, the “TNFa production in plasma” value (0.2 mg/kg, dose #1, 48 h) was 4.3 and the “IFNg production in plasma” value (0.2 mg/kg, dose #2, 6 h) was 16.5. The “IL12p70 production in plasma” value (0.2 mg/kg, dose #2, 6 h) was less than 3.2, the “IL-1b production in plasma” value (0.2 mg/kg, dose #2, 6 h) was 2.7 and the “IL-6 production in plasma” value (0.2 mg/kg, dose #2, 6 h) was 410.9. For the same compound, the “IL-10 production in plasma” value (0.2 mg/kg, dose #2, 6 h) was 1.2, the “IP10 production in plasma” value (0.2 mg/kg, dose #2, 6 h) was greater than 10000 and the “MCP-1 production in plasma” value (0.2 mg/kg, dose #2, 6 h) was 5244.6. For the same compound, the “MIP1a production in plasma” value (0.2 mg/kg, dose #2, 6 h) was 104.9, the “MIP1b production in plasma” value (0.2 mg/kg, dose #2, 6 h) was 718.6 and the “RANTES production in plasma” value (0.2 mg/kg, dose #2, 6 h) was 133.8. The “TNFa production in plasma” value (0.2 mg/kg, dose #2, 6 h) was 10.0, the “IFNg production in plasma” value (0.6 mg/kg, dose #1, 3 h) was less than 3.2 and the “IL12p70 production in plasma” value (0.6 mg/kg, dose #1, 3 h) was less than 3.2. The “IL-1b production in plasma” value (0.6 mg/kg, dose #1, 3 h) was 0.7, the “IL-6 production in plasma” value (0.6 mg/kg, dose #1, 3 h) was 1899.7 and the “IL-10 production in plasma” value (0.6 mg/kg, dose #1, 3 h) was 30.4. The “IP10 production in plasma” value (0.6 mg/kg, dose #1, 3 h) was 4826.2, the “MCP-1 production in plasma” value (0.6 mg/kg, dose #1, 3 h) was 1547.8 and the “MIP1a production in plasma” value (0.6 mg/kg, dose #1, 3 h) was 251.5. For the same compound, the “MIP1b production in plasma” value (0.6 mg/kg, dose #1, 3 h) was 2471.0, the “RANTES production in plasma” value (0.6 mg/kg, dose #1, 3 h) was 20.1 and the “TNFa production in plasma” value (0.6 mg/kg, dose #1, 3 h) was 21.0. The “IFNg production in plasma” value (0.6 mg/kg, dose #1, 6 h) was 18.3, the “IL12p70 production in plasma” value (0.6 mg/kg, dose #1, 6 h) was 3.1 and the “IL-1b production in plasma” value (0.6 mg/kg, dose #1, 6 h) was 5.7. The “IL-6 production in plasma” value (0.6 mg/kg, dose #1, 6 h) was 424.0, the “IL-10 production in plasma” value (0.6 mg/kg, dose #1, 6 h) was 3.8 and the “IP10 production in plasma” value (0.6 mg/kg, dose #1, 6 h) was 8828.3. For the same compound, the “MCP-1 production in plasma” value (0.6 mg/kg, dose #1, 6 h) was 12898.6, the “MIP1a production in plasma” value (0.6 mg/kg, dose #1, 6 h) was 137.2 and the “MIP1b production in plasma” value (0.6 mg/kg, dose #1, 6 h) was 1050.0. For the same compound, the “RANTES production in plasma” value (0.6 mg/kg, dose #1, 6 h) was 255.0, the “TNFa production in plasma” value (0.6 mg/kg, dose #1, 6 h) was 15.6 and the “IFNg production in plasma” value (0.6 mg/kg, dose #1, 24 h) was less than 3.2. The “IL12p70 production in plasma” value (0.6 mg/kg, dose #1, 24 h) was less than 3.2, the “IL-1b production in plasma” value (0.6 mg/kg, dose #1, 24 h) was 1.6 and the “IL-6 production in plasma” value (0.6 mg/kg, dose #1, 24 h) was 6.1. For the same compound, the “IL-10 production in plasma” value (0.6 mg/kg, dose #1, 24 h) was less than 3.2 and the “IP10 production in plasma” value (0.6 mg/kg, dose #1, 24 h) was 381.8.
